What was measured:
Akt1 kinase = target: T1, Akt1 kinase (Homo sapiens, UniProt P31749); assay: Akt kinase assay (HTRF, GSK-derived biotinylated peptide substrate); format: biochemical
T1 construct: a middle T tag was added to the 5′ end of the full length Akt1 gene; middle T tag (EYMPME) (N); biotin tag (from pS2neo vector); made in house; host or cells: Drosophila S2 cells
Method: (§1) Activated Akt isoforms and pleckstrin homology domain deletion constructs were assayed utilizing a GSK-derived biotinylated peptide substrate. The extent of peptide phosphorylation was determined by Homogeneous Time Resolved Fluorescence (HTRF) using a lanthanide chelate(Lance)-coupled monoclonal antibody specific for the phosphopeptide in combination with a streptavidin-linked allophycocyanin (SA-APC) fluorophore which will bind to the biotin moiety on the peptide. When the Lance and APC are in proximity (i.e. bound to the same phosphopeptide molecule), a non-radiative energy transfer takes place from the Lance to the APC, followed by emission of light from APC at 665 nm.
(§2) Materials required for the assay:
(§3) A. Activated Akt isozyme or pleckstrin homology domain deleted construct
(§4) B. Akt peptide substrate: GSK3α (S21) Peptide #3928 biotin-GGRARTSSFAEPG (SEQ. ID. NO. 15), Macromolecular Resources.
(§5) C. Lance labeled anti-phospho GSK3α monoclonal antibody (Cell Signaling Technology, clone #27).
(§6) D. SA-APC (Prozyme catalog no. MSS lot #896067).
(§7) E. Microfluor®B U Bottom Microtiter Plates (Dynex Technologies, Catalog no. 7205).
(§8) F. Discovery® HTRF Microplate Analyzer, Packard Instrument Company.
(§9) G. 100× Protease Inhibitor Cocktail (PIC): 1 mg/mL benzamidine, 0.5 mg/mL pepstatin, 0.5 mg/mL leupeptin, 0.5 mg/mL aprotinin.
(§10) H. 10× Assay Buffer: 500 mM HEPES, pH 7.5, 1% PEG, […], 1 mM EGTA, 1% BSA, 20 mM θ-Glycerol phosphate.
(§11) I. Quench Buffer: 50 mM HEPES pH 7.3, 16.6 mM EDTA, 0.1% BSA, 0.1% Triton X-100, 0.17 nM Lance labeled monoclonal antibody clone #27, 0.0067 mg/mL SA-APC
(§12) J. ATP/MgCl2 working solution: 1× Assay buffer, 1 mM DTT, 1×PIC, 125 mM KCl, 5% Glycerol, 25 mM MgCl2, 375 μM ATP
(§13) K. Enzyme working solution: 1× Assay buffer, 1 mM DTT, 1×PIC, 5% Glycerol, active Akt. The final enzyme concentrations were selected so that the assay was in a linear response range.
(§14) L. Peptide working solution: 1× Assay buffer, 1 mM DTT, 1×PIC, 5% Glycerol, 2 μM GSK3 biotinylated peptide #3928
(§15) The reaction is assembled by adding 16 μL of the ATP/MgCl2 working solution to the appropriate wells of a 96-well microliter plate. Inhibitor or vehicle (1.0 μL) is added followed by 10 μL of peptide working solution. The reaction is started by adding 13 μL of the enzyme working solution and mixing. The reaction is allowed to proceed for 50 min and then stopped by the addition of 60 μL HTRF quench buffer. The stopped reactions were incubated at room temperature for at least 30 min and then read on the Discovery instrument.

Akt2 kinase = target: T2, Akt2 kinase (Homo sapiens, UniProt P31751); assay: as above; format: biochemical
T2 construct: a middle T tag was added to the 5′ end of the full length Akt2 using the PCR primer; middle T tag (EYMPME) (N); biotin tag (from pS2neo vector); made in house; host or cells: Drosophila S2 cells
Method: as §1, §2, §3, §4, §5, §6, §7, §8, §9, §10, §11, §12, §13, §14, §15

T2 sequence (P31751 whole entry): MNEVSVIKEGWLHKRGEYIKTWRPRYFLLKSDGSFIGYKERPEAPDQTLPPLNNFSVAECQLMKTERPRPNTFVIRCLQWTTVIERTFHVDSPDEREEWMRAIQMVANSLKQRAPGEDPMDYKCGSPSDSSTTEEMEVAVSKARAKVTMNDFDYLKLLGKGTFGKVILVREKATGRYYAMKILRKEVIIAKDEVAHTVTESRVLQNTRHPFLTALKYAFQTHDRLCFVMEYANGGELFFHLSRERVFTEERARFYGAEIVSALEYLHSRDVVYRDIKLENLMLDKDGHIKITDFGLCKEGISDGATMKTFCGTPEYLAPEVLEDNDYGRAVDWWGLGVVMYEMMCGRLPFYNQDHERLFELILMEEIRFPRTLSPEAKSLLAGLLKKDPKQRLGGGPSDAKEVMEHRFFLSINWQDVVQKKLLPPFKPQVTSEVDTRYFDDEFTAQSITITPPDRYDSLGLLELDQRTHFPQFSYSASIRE
T1 sequence (P31749 whole entry): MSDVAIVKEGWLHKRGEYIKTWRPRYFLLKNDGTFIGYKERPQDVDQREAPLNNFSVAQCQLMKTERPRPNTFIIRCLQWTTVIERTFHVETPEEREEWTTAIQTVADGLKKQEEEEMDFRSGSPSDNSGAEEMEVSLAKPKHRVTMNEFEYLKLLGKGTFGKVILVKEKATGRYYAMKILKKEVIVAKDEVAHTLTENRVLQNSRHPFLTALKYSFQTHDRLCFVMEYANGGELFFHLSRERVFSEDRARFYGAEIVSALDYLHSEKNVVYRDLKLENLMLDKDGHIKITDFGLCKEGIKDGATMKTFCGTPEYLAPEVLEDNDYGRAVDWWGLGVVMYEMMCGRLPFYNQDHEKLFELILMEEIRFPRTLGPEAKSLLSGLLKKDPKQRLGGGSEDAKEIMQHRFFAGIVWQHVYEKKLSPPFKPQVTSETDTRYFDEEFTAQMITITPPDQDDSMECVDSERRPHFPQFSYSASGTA

IC50 (Akt1 kinase) | IC50 (Akt2 kinase) | Structure (SMILES)
4 nM | 29 nM | Cc1cc2ncc3cc(-c4ccccc4)c(-c4ccc([C@]5(N)C[C@@](O)(C6CC6)C5)cc4)nc3n2n1 [EXAMPLE 1-9, trans-3-amino-1-cyclopropyl-3-[4-(2-methyl-7-phenylpyrazolo[1,5-a]pyrido[3,2-e]pyrimidin-8-yl)phenyl]cyclobutanol]
32.7 nM | 33.8 nM | NC1(c2ccc(-c3nc4c(ccn5c(C6CC6)nnc45)cc3-c3ccccc3)cc2)CCC1 [EXAMPLE 9-2, 1-{4-[3-cyclopropyl-8-phenyl[1,2,4]triazolo[4,3-h]-1,7-naphthyridin-9-yl)phenyl}cyclobutanamine]
4.6 nM | 33.8 nM | c1ccc(-c2cc3cnc4nc(N5CCOCC5)nn4c3nc2-c2ccc(CN3CCC(c4nnc(-c5ccccn5)[nH]4)CC3)cc2)cc1 [EXAMPLE 12-3, 2-morpholin-4-yl-7-phenyl-8-(4-{[4-(5-pyridin-2-yl-4H-1,2,4-triazol-3-yl)piperidin-1-yl]methyl}phenyl)pyrido[3,2-e][1,2,4]triazolo[1,5-a]pyrimidine]
37.2 nM | 578 nM | C=CCNC(=O)C1CCN(Cc2ccc(-c3nc4c(cnc5cc(C)nn54)cc3-c3ccccc3)cc2)CC1 [EXAMPLE 15-3, 2-methyl-7-phenyl-8-(4-{[4-(prop-2-en-1-ylcarbamoyl)piperidin-1-yl]methyl}phenyl)pyrazolo[1,5-a]pyrido[3,2-e]pyrimidine]

From US8614221B2, “Inhibitors of Akt activity” (Merck Sharp & Dohme Corp., priority 2009, dated 2013)
